This is an account of results in paper PMC8247886, “Getting a Grip on the Undrugged: Targeting β‐Catenin with Fragment‐Based Methods” (Chemmedchem, 2021).

Converted amounts (≈) assume the structure as drawn.

A short description of data set [1]: Solubility in NMR buffer at pH 7.5 by quantitative NMR (maleic acid external standard). In kind it is physicochemical. The settings on record: NMR buffer (Tris/NaCl with 2% DMSO-d6), aqueous buffer, kinetic from dmso stock; NMR buffer pH 7.5; intended concentration 500 or 2000 μM; read-out: Solub. pH 7.5. How it is done: buffer (Tris 25 mM, pH 7.5, NaCl 150 mM) containing 2% DMSO-d6. […]
Solubility of compounds was determined in NMR buffer at pH 7.5 (see above) by integrating the
signal of 250 µM maleic acid as an external standard relative to the integrals of the ligands. If the
intended concentrations of 500 µM respective 2000 µM were reached the value is reported as >
500 µM or > 2000 µM. […]

The target of data set [2] is T1, β-catenin141–305 (Homo sapiens, UniProt P35222).
T1 construct: Amino acids 141-305 of uniprot ID: P35222; GST (cleaved yes); made in house; host or cells: E. coli BL21 (DE3)
T1 sequence (P35222 141-305): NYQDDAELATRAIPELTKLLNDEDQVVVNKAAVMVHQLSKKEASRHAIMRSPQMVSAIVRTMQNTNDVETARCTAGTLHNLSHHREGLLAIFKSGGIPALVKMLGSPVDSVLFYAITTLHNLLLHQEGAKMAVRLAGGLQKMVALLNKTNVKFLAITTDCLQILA
The experiment in a line: Microscale Thermophoresis (MST) screening and Kd determination. Format: binding. How it is done:
buffer (Tris 25 mM, pH 7.5, NaCl 150 mM) containing 2% DMSO-d6. A stock solution of β-catenin135-663 (12.5 µM) was dialyzed before into Tris 25 mM pH 7.6 NaCl 150 mM and centrifuged at 4° C at 15000 rpm for 20 minutes. Intensity ratios Ilogsy/I1D are derived from scaling of the 1D intensity to the corresponding LOGSY intensity. STD GEMs were acquired with 1.5 µM […]
2.0; and 3.0 seconds for the saturation time build up curves to determine the initial rate constants2.
STD experiments were acquired with on and off resonance saturation at +0.1ppm and -40ppm respectively with 1048 scans each.
Solubility of compounds was determined in NMR buffer at pH 7.5 (see above) by integrating the signal of 250 µM maleic acid as an external standard relative to the integrals of the ligands. If the intended concentrations of 500 µM respective 2000 µM were reached the value is reported as > 500 µM or > 2000 µM. Compound 3 only reached a concentration of 1000 µM according to the QNMR experiment even though 2000 µM was intended, it’s solubility is therefore reported as […]
Microscale Thermophoresis.
Fluorescence labeling of β-catenin141-305 with the NT647 dye was achieved using the Monolith NT.115 Protein Labeling Kit RED-NHS according to the manufacturer’s protocol (NanoTemper Technologies, Munich, Germany). The BCL9 peptide was used as positive control for assay development to achieve a reliably detectable change in the thermophoretic mobility ( ΔFnorm). […]
Final assay conditions were 50 nM NT647 labeled β-catenin141-305 in PBS pH 6.8 supplemented with 100 mM NaNO3, 0.5 mM TCEP and 0.05% Tween-20 at 25° C. Fragment screening detected […]
by MST was carried out as previously described8,9. […] Manual inspection of all MST traces was used to reject non-standard traces stemming from protein aggregation, bleaching, or fluorescence quenching. ΔFnorm values (ΔFnorm=Fhot/Fcold) were calculated and the mean values of the duplicates were compared to the mean values of the DMSO negative control. […] Protein integrity over the entire FBS was monitored by the BCL9 peptide positive control. […]
(MST reads how a fluorescent partner responds to local heating, with and without ligand.)

Data set [3] concerns the target T1, β-catenin141–305. The experiment in a line: 2D 15N NMR (TROSY/HSQC/HMQC) detected binding and Kd titration. How it is done:
The construct for expression of β-catenin141-305 (Amino acids 141-305 of uniprot ID: P35222) is based on the previously reported R4 construct1. The plasmid was used to transform E. coli, strain BL21 (DE3) cells (Invitrogen). For protein expression, an overnight culture in LB-medium supplemented ampicillin (100 µg/mL) at 37 °C was prepared and diluted the next day with fresh 2xYT-medium. At OD600 of 0.8 the culture was cooled down to 18 °C and after induction with 0.5 mM IPTG incubated for 20 h. Cell pellets obtained by centrifugation at 5000 rpm were stored at - 20 °C. Cells were solubilized in buffer A (2X Dulbecco’s PBS; 500 mM NaCl; 10 % Glycerol; 0.5 mM TCEP; cOmplete™ Protease Inhibitor Cocktail; pH 7.4) and disrupted by sonication (Sonopuls, Bandelin) on ice. After 30 min the sonicated lysate was clarified by centrifugation (50 min, 13500 rpm, 4 °C). The supernatant was mixed with 20 mL Glutathione Sepharose® 4B resin (GE Healthcare) slurry, washed in lysis buffer, and steered for 3 hours on ice. The beads were spun down, loaded into a XK16 column cartridge and washed with lysis buffer until baseline. The protein was eluted with buffer B (2X Dulbecco’s PBS; 500 mM NaCl; 10 % Glycerol; 0.5 mM TCEP;; pH 7.4) + 25 mM L-Glutathione reduced. After cleavage with 2000 units Human Alpha Thrombin (Enzyme Research Laboratories) at room temperature overnight, the protein was collected in the flow-through fraction of a second GST run (GSTrap HP 5 mL column; GE Healthcare) using buffer B. The flow-through was concentrated by centrifugation using an Amicon© Ultra 15 mL Centrifugal Filter (Merck Millipore) and loaded onto a HiLoad Superdex S75 column (GE Healthcare) equilibrated with 50 mM Tris; 200 mM NaCl; 3 mM DTT; pH 8.
Fractions were analyzed by SDS-PAGE and fractions containing the desired protein were pooled and concentrated with an Amicon© Ultra 15 mL Centrifugal Filter (Merck Millipore). […]
For confirmation of hits obtained from STD-NMR by 2D 15N TROSY NMR4 a Bruker Avance III 600 MHz instrument with a 5 mm cryo-TCI probe and z-gradient was used. The experimental set up (automated sample preparation and transfer into the magnet by a Tecan Freedom Evo pipetting robot and a Bruker Sample Rail system, respectively) was identical. Each sample contained 25 uM 15N labeled β-catenin141-305 25 mM sodium phosphate, 150 mM sodium chloride, 100 mM sodium nitrate, 0.5mM TCEP pH 6.8 in H2O at 25 °C and 8% (v/v) D2O. The protein was incubated with 500 uM fragment in a 2.5 mm NMR tube at 25 °C and a d6DMSO concentration of 1%. Spectra were recorded with 48 transients and 64 data points in the indirect dimension. Manual comparison of the spectrum in the presence of the to be tested fragment with the DMSO reference spectrum reveal either line broadening or chemical shift perturbation of cross peaks. Both effects are indicative for compound binding. All processing and analysis was done with the Topspin 2.1 software (Bruker BioSpin). Further spectral comparisons were performed with the FELIX software package (Felix NMR Inc.) to combine manual with automated analysis5. […]
700MHz spectrometer equipped with a cryogenically cooled 5mm TCI probe. […]
The
WaterLOGSY pulse sequence was used as described before7. Selective water inversion was achieved with a double excitation sculpting element employing water selective Gaussian refocusing pulses (inversion bandwidth of 0.5 ppm, pulse length of 7.5 ms). The number of scans was set to 2048. Sample concentrations were 0.5 mM ligand and 0.25–10 µM β-catenin135-663 in […]

In data set [4] the target is T1, β-catenin141–305. In words: Surface Plasmon Resonance (SPR) Kd determination. Format: binding. The following applies: mean of three independent experiments ± SD; 1:1 steady-state fit. How it is done: Surface Plasmon Resonance (SPR)
A Biacore T200 instrument was used for SPR analysis, β-catenin141-305 was pre-diluted to a concentration of 0.1 mg/mL with 10 mM sodium acetate buffer, pH 5.0 and immobilized at a density of 6000 –7000 response units on flow cell 2 of a Biacore CM5 chip. Carbonic anhydraseII served as a reference protein on flow cell 3 and flow cell 1 was kept blank and used as the reference surface. A mixture of 20 mM Tris, pH 7.5, 150 mM NaCl, 0.5 mM TCEP, 0.005% Tween20, 2 % dimethyl sulfoxide was used as assay buffer. After pre -equilibration of the chip with 10 blank injections, the Kd measurements were performed by injecting a concentration series of analyte (9 concentrations, 1:1 dilutions). BCL9 347-392 served as a positive control. K d values were determined by global fitting of the steady-state response for each of the 9 concentrations to a 1:1 interaction model using the Biacore T200 evaluation software. Each compound was injected three times and […]
average Kd values were calculated from the repeats. The reported data are the mean values of three independent experiments ± standard deviations. […]
Glutamax Supplement (Thermo Fisher Scientific, 35050061) with 10% FCS (GE Healthcare, SH30071.03). Transfections were performed with Lipofectamine LTX Reagent (Thermo Fisher, 15338100) according the manufacturer’s instructions.

The target in the next data set is β-catenin. Set-up: method as in PMID 11237626. The following applies: read-out: binding affinity to β-catenin; cited from earlier work.
Where [5] appears, read: 15N NMR titration, single titration, mean of curves of selected cross peaks ± SD, read-out: HSQC Kd.

For `CC1SCC(=O)Nc2cc(Cl)ccc21` (stereo not shown) [Compound 2], the solubility in data set [1] is greater than 500 µM. The Kd on β-catenin141–305 [2] (50 nM labeled β-catenin141–305, single titration) came out at 820 ± 320 µM. In addition, the “MST binding signal ΔΔF nom” value on β-catenin141–305 [2] (500 μM compound, 1 % DMSO, standard deviation with DMSO 1.8‰) was 7.5 ‰.
Turning to `CN1CC(c2ccccc2)Nc2ccccc2C1=O` (stereo not shown) [Compound 3], the solubility in data set [1] was determined as 1000 µM (≈ 252 µg/mL). The Kd at β-catenin141–305 [3] (setting [5]) amounted to 1100 ± 255 µM.
For `CN1C[C@@H](c2ccccc2)Oc2ccccc2C1=O` [Compound 4], the solubility in data set [1] was greater than 2000 µM. Besides, the Kd is greater than 10000 µM at β-catenin141–305 [4] and 2260 ± 1260 µM on β-catenin141–305 [3] (setting [5]).
On to `CN1C[C@H](c2ccccc2)Oc2ccccc2C1=O` [Compound 5], for which the solubility in data set [1] is greater than 2000 µM. In addition, the Kd on β-catenin141–305 [4] and at β-catenin141–305 [3] (setting [5]) was greater than 10000 µM each time.
As for `CN1C[C@@H](c2cccc(C#N)c2)Oc2ccccc2C1=O` [Compound 6], the solubility in data set [1] is greater than 2000 µM. In addition, the Kd at β-catenin141–305 [4] worked out at 1390 ± 46 µM; at β-catenin141–305 [3] (setting [5]), 915 ± 303 µM; at β-catenin141–305 [3] (titration curve of single cross peak D207, read-out: NMR Kd, cross peak D207) it was 1010 µM; on β-catenin141–305 [3] (titration curve of single cross peak G245, read-out: NMR Kd, cross peak G245), 575 µM; on β-catenin141–305 [3] (titration curve of single cross peak V208, read-out: NMR Kd, cross peak V208) it was 1160 µM.
Turning to `CN1C[C@H](c2cccc(C#N)c2)Oc2ccccc2C1=O` [Compound 7], the solubility in data set [1] is greater than 2000 µM. Moreover, the Kd at β-catenin141–305 [4] and on β-catenin141–305 [3] (setting [5]) was greater than 10000 µM each time. Besides, the “chemical shift perturbations (CSPs) in 2D 15N NMR” value on β-catenin141–305 [3] (500 μM compound) is recorded as “did not show any CSPs”.
Regarding “TCF4: transcription factor, natural binding partner of β-catenin”, the Kd on β-catenin was roughly 0.02 µM.
